Reference: PubChem BioAssay (NCI)
Several values for one entry are separate records, joined by “and”; a condition that tells them apart may be missing. Equal values may be shown once.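 96-well plates; 48 h exposure; 5 concentrations. Endpoints by linear interpolation between flanking doses. Not reached: highest tested concentration assigned. GI50 = concentration required for 50% inhibition of growth. At the TGI there is no net growth.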

Tests used:
Experiment in all cases: NCI tumour cell line growth inhibition, 48 h
[1] = tested on: HCT-15 colon
[2] = tested on: UACC-62 melanoma
[3] = tested on: HT29 colon
[4] = tested on: HL-60(TB) leukemia
[5] = tested on: NCI-H460 lung
[6] = tested on: NCI-H522 lung
[7] = tested on: SF-268 CNS
[8] = tested on: SW-620 colon
[9] = tested on: CCRF-CEM leukemia
[10] = tested on: SK-OV-3 ovarian

Q: Which results are given for `CN(CCNC(=O)c1cn(C)c2c1ccc1cc(Cl)ccc12)CCNC(=O)c1cn(C)c2c1ccc1cc(Cl)ccc12`?
A: TGI [1]: 3.3 µM; TGI [2]: 10.8 µM; TGI [3]: 3.62 µM; TGI [4]: 10.4 µM; TGI [5]: > 100 µM; TGI [6]: 3.68 µM; TGI [7]: 3.51 µM; TGI [8]: 40.5 µM; TGI [9]: 66 µM

Q: `O=NN(CCCl)C(=O)Nc1ccc(Cl)c(Cl)c1` was tested. Which TGI [10] did it give?
A: The TGI was > 100 µM.

Q: And the TGI [1]?
A: Its TGI is > 100 µM.

Q: What about the TGI [2] of the same compound?
A: Its TGI is > 100 µM.

Q: And the TGI [3]?
A: The TGI was > 100 µM.

Q: And the TGI [4]?
A: The TGI was > 100 µM.

Q: What about the TGI [5] of the same compound?
A: The TGI was > 100 µM.

Q: What about the TGI [6] of the same compound?
A: Its TGI is > 89.5 µM.

Q: What about the TGI [7] of the same compound?
A: Its TGI is > 100 µM.

Q: What about the TGI [8] of the same compound?
A: The TGI was > 100 µM.

Q: And the TGI [9]?
A: Its TGI is > 100 µM.

Q: For `OCCSCc1cc(Cl)cc(Cl)c1O`, which TGI [10] is on record?
A: The TGI was > 100 µM.

Q: And the TGI [1]?
A: Its TGI is > 100 µM.

Q: And the TGI [2]?
A: The TGI was > 100 µM.

Q: And the TGI [3]?
A: The TGI was > 100 µM.

Q: And the TGI [5]?
A: The TGI was > 100 µM.

Q: And the TGI [6]?
A: The TGI was > 100 µM.

Q: And the TGI [7]?
A: Its TGI is > 100 µM.

Q: And the TGI [8]?
A: The TGI was > 100 µM.

Q: What about the TGI [9] of the same compound?
A: The TGI was > 100 µM.

Q: Which GI50 [10] does the source give for `Nc1nccc2c1ncn2C1C=C(CO)C(O)C1O` (stereo not drawn) here?
A: The GI50 was > 1000 µM.

Q: And the TGI [10]?
A: Its TGI is > 1000 µM.

Q: And the GI50 [1]?
A: The GI50 was 226 µM.

Q: What about the TGI [1] of the same compound?
A: Its TGI is > 1000 µM.

Q: What about the GI50 [2] of the same compound?
A: The GI50 was 6.88 µM.

Q: What about the TGI [2] of the same compound?
A: Its TGI is > 1000 µM.

Q: What about the GI50 [3] of the same compound?
A: Its GI50 is 0.816 µM.

Q: And the TGI [3]?
A: Its TGI is > 1000 µM.

Q: What about the GI50 [4] of the same compound?
A: The GI50 was 0.337 µM.

Q: And the TGI [4]?
A: Its TGI is > 1000 µM.

Q: What about the GI50 [5] of the same compound?
A: Its GI50 is 0.578 µM.

Q: And the TGI [5]?
A: The TGI was > 1000 µM.

Q: What about the GI50 [6] of the same compound?
A: The GI50 was > 1000 µM.

Q: What about the TGI [6] of the same compound?
A: Its TGI is > 1000 µM.

Q: What about the GI50 [8] of the same compound?
A: The GI50 was 0.775 µM.

Q: What about the TGI [8] of the same compound?
A: The TGI was > 1000 µM.

Q: What about the GI50 [9] of the same compound?
A: The GI50 was 1.91 µM.

Q: And the TGI [9]?
A: The TGI was > 1000 µM.

Q: With `CC(C)(C)OC(=O)N1CCCC1C(=O)NCCNc1ccc(NCCNC(=O)C2CCCN2C(=O)OC(C)(C)C)c2c1C(=O)c1ccccc1C2=O` (stereo not drawn) as the compound, how does the TGI [10] read?
A: The TGI was 39.6 µM.

Q: What about the TGI [1] of the same compound?
A: Its TGI is 26.8 µM.

Q: What about the TGI [2] of the same compound?
A: The TGI was 23.8 µM.

Q: And the TGI [3]?
A: Its TGI is 38.2 µM.

Q: And the TGI [4]?
A: The TGI was > 100 µM.

Q: What about the TGI [6] of the same compound?
A: Its TGI is 29.7 µM.

Q: And the TGI [7]?
A: The TGI was > 100 µM.

Q: What about the TGI [8] of the same compound?
A: The TGI was 29.8 µM.

Q: And the TGI [9]?
A: The TGI was > 100 µM.

Q: What does the source list for `O=[P+](O)c1cccs1`?
A: TGI [10]: > 100 µM; TGI [1]: > 100 µM; TGI [2]: > 100 µM; TGI [3]: > 100 µM; TGI [4]: > 100 µM; TGI [5]: > 100 µM; TGI [6]: > 100 µM; TGI [7]: > 100 µM; TGI [8]: > 100 µM; TGI [9]: > 100 µM

Q: What does the source list for `O=C1CSc2sc(=S)sc2S1`?
A: TGI [10]: > 100 µM; TGI [1]: > 100 µM; TGI [2]: > 100 µM; TGI [3]: > 100 µM; TGI [4]: > 100 µM; TGI [5]: > 100 µM; TGI [6]: > 100 µM; TGI [7]: > 100 µM; TGI [8]: > 100 µM; TGI [9]: > 100 µM

Q: `CCOC(=O)c1c(SC)nc(-c2ccc(Cl)cc2)sc1=N` was tested. Which TGI [10] did it give?
A: The TGI was > 100 µM.

Q: What about the TGI [1] of the same compound?
A: The TGI was 73.9 µM.

Q: And the TGI [2]?
A: The TGI was > 100 µM.

Q: And the TGI [3]?
A: Its TGI is > 100 µM.

Q: What about the TGI [4] of the same compound?
A: Its TGI is 78.7 µM.

Q: And the TGI [5]?
A: The TGI was > 100 µM.

Q: And the TGI [7]?
A: Its TGI is > 100 µM.

Q: What about the TGI [8] of the same compound?
A: Its TGI is > 100 µM.

Q: What about the TGI [9] of the same compound?
A: The TGI was > 100 µM.

Q: With `Cc1ccc(NC(=O)CC(=O)n2nc(-c3ccccc3)c(N=Nc3ccccc3C(=O)O)c2-c2ccccc2)cc1` as the compound, how does the TGI [10] read?
A: The TGI was > 100 µM.

Q: And the TGI [1]?
A: Its TGI is > 100 µM.

Q: And the TGI [2]?
A: Its TGI is > 100 µM.

Q: What about the TGI [6] of the same compound?
A: The TGI was > 100 µM.

Q: What about the TGI [7] of the same compound?
A: Its TGI is > 100 µM.

Q: And the TGI [8]?
A: Its TGI is > 100 µM.

Q: `O=C1NC2(NC(=O)C1=O)Nc1ccccc1S2` was tested. Which TGI [10] did it give?
A: The TGI was > 100 µM.

Q: And the TGI [1]?
A: The TGI was > 59.5 µM.

Q: What about the TGI [2] of the same compound?
A: The TGI was 63.8 µM.

Q: And the TGI [3]?
A: Its TGI is > 100 µM.

Q: And the TGI [4]?
A: The TGI was > 64.8 µM.

Q: And the TGI [5]?
A: Its TGI is > 100 µM.

Q: And the TGI [6]?
A: The TGI was 50 µM.

Q: What about the TGI [7] of the same compound?
A: Its TGI is > 76.3 µM.

Q: What about the TGI [8] of the same compound?
A: Its TGI is > 46.1 µM.

Q: And the TGI [9]?
A: The TGI was 66.3 µM.

Q: Which GI50 [10] does the source give for `COc1cccc2c1C(=O)c1c(O)c3c(c(O)c1C2=O)C[C@@](O)(C(C)=O)C[C@@H]3OC1CC(N(C)C)C(O)C(C)O1` (stereo partly drawn) here?
A: Its GI50 is 0.144 µM and 0.115 µM.

Q: What about the TGI [10] of the same compound?
A: The TGI was 3.17 µM and 3.85 µM.

Q: What about the GI50 [1] of the same compound?
A: Its GI50 is 0.0211 µM.

Q: And the GI50 [2]?
A: Its GI50 is 0.0372 µM and < 0.0115 µM.

Q: And the GI50 [3]?
A: The GI50 was 0.00516 µM.

Q: And the TGI [3]?
A: Its TGI is 5.91 µM.

Q: And the GI50 [4]?
A: The GI50 was 0.0402 µM.

Q: What about the GI50 [5] of the same compound?
A: The GI50 was 0.00786 µM.

Q: And the GI50 [6]?
A: The GI50 was 0.036 µM and 0.021 µM.

Q: What about the GI50 [7] of the same compound?
A: Its GI50 is < 0.0191 µM.

Q: What about the GI50 [8] of the same compound?
A: The GI50 was 0.00484 µM.

Q: What about the TGI [8] of the same compound?
A: Its TGI is 0.622 µM and 1.56 µM.

Q: And the GI50 [9]?
A: Its GI50 is 0.0291 µM.

Q: Which results are given for `CC1C(O)[C@@]2(OC[C@@]34C(=O)CC5(O)[C@H](CCC6Cc7nc8c(nc7C[C@]65C)CC5CC[C@@H]6C7=C[C@H]9O[C@@]%10(O[C@@](C)(CO)C[C@@H]%10O)C(C)[C@@]9(O)[C@]7(C)[C@@H](O)CC6[C@]5(C)C8)C3=CC[C@H]4C2C)OC1(C)C` (stereo partly drawn)?
A: TGI [10]: 0.274 µM; TGI [1]: 0.379 µM; TGI [2]: 0.00489 µM; TGI [3]: 0.061 µM; TGI [4]: 0.536 µM; TGI [5]: 0.0937 µM; TGI [6]: 0.083 µM; TGI [7]: 0.37 µM; TGI [8]: 0.0433 µM; TGI [9]: 0.0966 µM

Q: How did the TGI [10] turn out when `COC[C@@H]1Cc2cc(OC)c3c(c2[C@H](c2ccc(OC)c(OC)c2)[C@H]1COC)OCO3` was run?
A: Its TGI is > 100 µM.

Q: What about the TGI [1] of the same compound?
A: Its TGI is > 100 µM.

Q: And the TGI [2]?
A: The TGI was > 100 µM.

Q: What about the TGI [3] of the same compound?
A: Its TGI is > 100 µM.

Q: And the TGI [4]?
A: Its TGI is > 100 µM.

Q: What about the TGI [5] of the same compound?
A: The TGI was > 100 µM.

Q: What about the TGI [6] of the same compound?
A: Its TGI is > 100 µM.

Q: What about the TGI [7] of the same compound?
A: The TGI was > 100 µM.

Q: What about the TGI [8] of the same compound?
A: Its TGI is > 100 µM.

Q: And the TGI [9]?
A: The TGI was > 100 µM.

Q: How did the TGI [10] turn out when `Cc1cc(O)c2cc3c(O)c(O)ccc3cc2c1` was run?
A: Its TGI is 9.82 µM.

Q: And the TGI [1]?
A: The TGI was 5.91 µM.

Q: And the TGI [2]?
A: Its TGI is 22.6 µM.

Q: And the TGI [3]?
A: Its TGI is 8.43 µM.

Q: And the TGI [4]?
A: Its TGI is 4.16 µM.

Q: And the TGI [5]?
A: Its TGI is 3.63 µM.

Q: What about the TGI [6] of the same compound?
A: Its TGI is 3.98 µM.

Q: What about the TGI [7] of the same compound?
A: Its TGI is 8.51 µM.

Q: And the TGI [8]?
A: The TGI was > 28.9 µM.

Q: What about the TGI [9] of the same compound?
A: The TGI was 22.6 µM.
